Measured values as given in patent US20240150290A1, “HETEROCYCLIC P2Y14 RECEPTOR ANTAGONISTS” (priority 2021, published 2024).

Target: T1, hP2Y14R (Homo sapiens, UniProt Q15391)
T1 construct: expressed in transfected cells; host or cells: CHO cells
T1 sequence (Q15391 1-338): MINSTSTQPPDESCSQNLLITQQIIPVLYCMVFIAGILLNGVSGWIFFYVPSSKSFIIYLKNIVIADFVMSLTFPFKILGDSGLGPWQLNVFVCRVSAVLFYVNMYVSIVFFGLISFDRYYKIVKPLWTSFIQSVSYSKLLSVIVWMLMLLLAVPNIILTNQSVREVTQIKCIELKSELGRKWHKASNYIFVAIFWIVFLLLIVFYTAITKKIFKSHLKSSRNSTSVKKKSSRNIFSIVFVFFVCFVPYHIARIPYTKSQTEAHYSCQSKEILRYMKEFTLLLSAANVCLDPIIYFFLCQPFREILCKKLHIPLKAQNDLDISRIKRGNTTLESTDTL
Test: Inhibition of fluorescent antagonist binding in whole hP2Y14R-expressing CHO cells (flow cytometry)
Conditions: Example 5 table; whole cell fluorescent binding assay; read-out: IC50

IC50 | Molecule
0.00958 ± 0.00514 µM | O=C(O)c1cc(-c2ccc(C3CCCNCC3)cc2)c2ccc(-c3ccc(C(F)(F)F)cc3)cc2c1 (centres unmarked) [Compound 426, 4-(4-(Azepan-4-yl)phenyl)-7-(4-(trifluoromethyl)phenyl)-2-naphthoic acid]
0.00592 ± 0.00055 µM | O=C(O)c1cc(-c2ccc([C@@]3(O)[C@@H]4CNC[C@H]3C4)cc2)c2ccc(-c3ccc(C(F)(F)F)cc3)cc2c1 [Compound 425, 4-(4-((1R,5S,6r)-6-Hydroxy-3-azabicyclo[3.1.1]heptan-6-yl)phenyl)-7-(4-(trifluoromethyl)phenyl)-2-naphthoic acid]
0.0466 ± 0.0071 µM | O=C(O)c1cc(-c2ccc(C3CC4(CNC4)C3)cc2)c2ccc(-c3ccc(C(F)(F)F)cc3)cc2c1 [Compound 406, 4-(4-(2-Azaspiro[3.3]heptan-6-yl)phenyl)-7-(4-(trifluoromethyl)phenyl)-2-naphthoic acid]
0.0659 ± 0.0193 µM | O=C(O)c1cc(-c2ccc(C3CNC3)cc2)c2ccc(-c3ccc(C(F)(F)F)cc3)cc2c1 [Compound 405, 4-(4-(Azetidin-3-yl)phenyl)-7-(4-(trifluoromethyl)phenyl)-2-naphthoic acid]
1.78 ± 0.44 µM | O=C(O)c1cc(-c2ccc(C3(O)CCCNCCC3)cc2)c2ccc(-c3ccc(C(F)(F)F)cc3)cc2c1 [Compound 430, 4-(4-(5-hydroxyazocan-5-yl)phenyl)-7-(4-(trifluoromethyl)phenyl)-2-naphthoic acid]
0.00969 ± 0.00356 µM | O=C(O)c1cc(-c2ccc(C3=CC4(CNC4)C3)cc2)c2ccc(-c3ccc(C(F)(F)F)cc3)cc2c1 [Compound 407, 4-(4-(2-Azaspiro[3.3]hept-5-en-6-yl)phenyl)-7-(4-(trifluoromethyl)phenyl)-2-naphthoic acid]
0.0119 ± 0.0036 µM | Mixture of 4-(4-(2,3,6,7-Tetrahydro-1H-azepin-4-yl)phenyl)-7-(4-(trifluoromethyl)phenyl)-2-naphthoic acid and 4-(4-(2,5,6,7-tetrahydro-1H-azepin-4-yl)phenyl)-7-(4-(trifluoromethyl)phenyl)-2-naphthoic acid [Compound 427]
0.524 ± 0.104 µM | O=C(O)c1cc(-c2ccc([C@H]3[C@@H]4CNC[C@H]3C4)cc2)c2ccc(-c3ccc(C(F)(F)F)cc3)cc2c1 [Compound 424, 4-(4-((1R,5S,6r)-3-Azabicyclo[3.1.1]heptan-6-yl)phenyl)-7-(4-(trifluoromethyl)phenyl)-2-naphthoic acid]

Molecule | IC50
4-(4-(6-Methoxy-2-azaspiro[3.3]heptan-6-yl)phenyl)-7-(4-(trifluoromethyl)phenyl)-2-naphthoic acid and 4-(4-(6-(methoxy-d3)-2-azaspiro[3.3]heptan-6-yl)phenyl)-7-(4-(trifluoromethyl)phenyl)-2-naphthoic acid [Compound 409] | 0.0465 ± 0.01 µM

Same assay, conditions: Table 1; fluorescent antagonist 2, hP2Y14R-CHO cells, 3-4 determinations; read-out: IC50, hP2Y14R (μM, mean ± SEM)

Molecule | IC50
O=C(O)c1ccc(-c2cc(C(=O)O)cc(-n3cc(-c4ccc(C(F)(F)F)cc4)nn3)c2)cc1 [Compound 13, 5-(4-(4-(Trifluoromethyl)phenyl)-1H-1,2,3-triazol-1-yl)-[1,1′-biphenyl]-3,4′-dicarboxylic acid] | 0.632 ± 0.023 µM
Nc1ccc(-c2cc(C(=O)O)cc(-n3cc(-c4ccc(C(F)(F)F)cc4)nn3)c2)cc1 [Compound 7, 4′-Amino-5-(4-(4-(trifluoromethyl)phenyl)-1H-1,2,3-triazol-1-yl)-[1,1′-biphenyl]-3-carboxylic acid] | 1.48 ± 0.16 µM
CC(C)(C)OC(=O)N1CCC(C(=O)Nc2ccc(-c3cc(C(=O)O)cc(-n4cc(-c5ccc(C(F)(F)F)cc5)nn4)c3)cc2)CC1 [Compound 12, 4′-(1-(tert-Butoxycarbonyl)piperidine-4-carboxamido)-5-(4-(4-(trifluoromethyl)phenyl)-1H-1,2,3-triazol-1-yl)-[1,1′-biphenyl]-3-carboxylic acid] | 22.5 ± 3.7 µM
NCCCc1ccc(-c2cc(C(=O)O)cc(-n3cc(-c4ccc(C(F)(F)F)cc4)nn3)c2)cc1 [Compound 18, 4′-(3-Aminopropyl)-5-(4-(4-(trifluoromethyl)phenyl)-1H-1,2,3-triazol-1-yl)-[1,1′-biphenyl]-3-carboxylic acid] | 0.292 ± 0.067 µM
NC(=O)Cc1ccc(-c2cc(C(=O)O)cc(-n3cc(-c4ccc(C(F)(F)F)cc4)nn3)c2)cc1 [Compound 16, 4′-(2-Amino-2-oxoethyl)-5-(4-(4-(trifluoromethyl)phenyl)-1H-1,2,3-triazol-1-yl)-[1,1′-biphenyl]-3-carboxylic acid] | 1.29 ± 0.32 µM
CC(C)(C)OC(=O)NCC1(c2ccc(-c3cc(C(=O)O)cc(-n4cc(-c5ccc(C(F)(F)F)cc5)nn4)c3)cc2)CC1 [Compound 24, 4′-(1-(((tert-Butoxycarbonyl)amino)methyl)cyclopropyl)-5-(4-(4-(trifluoromethyl)phenyl)-1H-1,2,3-triazol-1-yl)-[1,1′-biphenyl]-3-carboxylic acid] | 18.8 ± 2 µM
NC1(c2ccc(-c3cc(C(=O)O)cc(-n4cc(-c5ccc(C(F)(F)F)cc5)nn4)c3)cc2)CC1 [Compound 22, 4′-(1-Aminocyclopropyl)-5-(4-(4-(trifluoromethyl)phenyl)-1H-1,2,3-triazol-1-yl)-[1,1′-biphenyl]-3-carboxylic acid] | 14.1 ± 0.9 µM
CC(=O)Nc1ccc(-c2cc(C(=O)O)cc(-n3cc(-c4ccc(C(F)(F)F)cc4)nn3)c2)cc1 [Compound 8, 4′-Acetamido-5-(4-(4-(trifluoromethyl)phenyl)-1H-1,2,3-triazol-1-yl)-[1,1′-biphenyl]-3-carboxylic acid] | 0.811 ± 0.095 µM
N#CCCc1ccc(-c2cc(C(=O)O)cc(-n3cc(-c4ccc(C(F)(F)F)cc4)nn3)c2)cc1 [Compound 17, 4′-(2-Cyanoethyl)-5-(4-(4-(trifluoromethyl)phenyl)-1H-1,2,3-triazol-1-yl)-[1,1′-biphenyl]-3-carboxylic acid] | 17.8 ± 2.9 µM
O=C(O)c1cc(-c2ccc(CCCCO)cc2)cc(-n2cc(-c3ccc(C(F)(F)F)cc3)nn2)c1 [Compound 21, 4′-(4-Hydroxybutyl)-5-(4-(4-(trifluoromethyl)phenyl)-1H-1,2,3-triazol-1-yl)-[1,1′-biphenyl]-3-carboxylic acid] | 9.22 ± 1.22 µM
O=C(O)c1cc(-c2ccc(-c3cc(CCO)on3)cc2)cc(-n2cc(-c3ccc(C(F)(F)F)cc3)nn2)c1 [Compound 30, 4′-(5-(2-Hydroxyethyl)isoxazol-3-yl)-5-(4-(4-(trifluoromethyl)phenyl)-1H-1,2,3-triazol-1-yl)-[1,1′-biphenyl]-3-carboxylic acid] | 0.389 ± 0.042 µM
NCC1(c2ccc(-c3cc(C(=O)O)cc(-n4cc(-c5ccc(C(F)(F)F)cc5)nn4)c3)cc2)CC1 [Compound 23, 4′-(1-(Aminomethyl)cyclopropyl)-5-(4-(4-(trifluoromethyl)phenyl)-1H-1,2,3-triazol-1-yl)-[1,1′-biphenyl]-3-carboxylic acid] | 8.91 ± 0.75 µM

Same assay, conditions: Table 2; whole hP2Y14R-CHO cells, 20 nM fluorescent antagonist 3, mean+SEM, n = 3-6; read-out: IC50

Molecule | IC50
O=C(O)c1cc(-c2ccc([C@H]3C[C@H]4C[C@@H]3C(=O)N4)cc2)c2ccc(-c3ccc(C(F)(F)F)cc3)cc2c1 [Compound 119, 4-(4-((1S,4S,5S)-3-Oxo-2-azabicyclo[2.2.1]heptan-5-yl)phenyl)-7-(4-(trifluoromethyl)phenyl)-2-naphthoic acid] | 0.101 ± 0.07 µM
O=C(O)c1cc(-c2ccc(C3CCN(CCCCc4cn([C@@H]5O[C@H](CO)[C@@H](O)[C@H](O)[C@H]5O)nn4)CC3)cc2)c2ccc(-c3ccc(C(F)(F)F)cc3)cc2c1 [Compound 508, 7-(4-(Trifluoromethyl)phenyl)-4-(4-(1-(4-(1-((2R,3R,4S,5S,6R)-3,4,5-trihydroxy-6-(hydroxymethyl)tetrahydro-2H-pyran-2-yl)-1H-1,2,3-triazol-4-yl)butyl)piperidin-4-yl)phenyl)-2-naphthoic acid] | 0.0157 ± 0.0025 µM
O=C(O)c1cc(-c2ccc([C@H]3C[C@H]4C[C@@H]3NC4=O)cc2)c2ccc(-c3ccc(C(F)(F)F)cc3)cc2c1 [Compound 122, 4-(4-((1S,4S,6R)-3-Oxo-2-azabicyclo[2.2.1]heptan-6-yl)phenyl)-7-(4-(trifluoromethyl)phenyl)-2-naphthoic acid] | 0.0586 ± 0.0129 µM
CS(=O)(=O)N1C[C@H]2C[C@@H]1C[C@@H]2c1ccc(-c2cc(C(=O)O)cc3cc(-c4ccc(C(F)(F)F)cc4)ccc23)cc1 [Compound 123] | 0.497 ± 0.092 µM

Same assay, conditions: Table 6; fluorescent hP2Y14R antagonist (3); read-out: hP2Y14R, IC50

Molecule | IC50
N[C@H]1C[C@@H](CO)C[C@@H]1c1ccc(-c2cc(C(=O)O)cc3cc(-c4ccc(C(F)(F)F)cc4)ccc23)cc1 [Compound 137, 4-(4-((1R,2S,4S)-2-Amino-4-(hydroxymethyl)cyclopentyl)phenyl)-7-(4-(trifluoromethyl)phenyl)-2-naphthoic acid] | 0.125 ± 0.045 µM

Same assay, conditions: read-out: IC50

IC50 | Molecule
0.0166 ± 0.0032 µM | O=C(O)c1cc(-c2ccc(C3=C[C@H]4CNC[C@@H]4C3)cc2)c2ccc(-c3ccc(C(F)(F)F)cc3)cc2c1 (racemic) [Compound 412, rac-4-(4-((3aR,6aR)-1,2,3,3a,4,6a-Hexahydrocyclopenta[c]pyrrol-5-yl)phenyl)-7-(4-(trifluoromethyl)phenyl)-2-naphthoic acid]
0.032 ± 0.0112 µM | O=C(O)c1cc(-c2ccc(C3C[C@H]4CNC[C@@H]4C3)cc2)c2ccc(-c3ccc(C(F)(F)F)cc3)cc2c1 (racemic) [Compound 413, rac-4-(4-((3aR,6aR)-Octahydrocyclopenta[c]pyrrol-5-yl)phenyl)-7-(4-(trifluoromethyl)phenyl)-2-naphthoic acid]
0.00948 ± 0.00166 µM | O=C(O)c1cc(-c2ccc(C3(O)C[C@H]4CNC[C@@H]4C3)cc2)c2ccc(-c3ccc(C(F)(F)F)cc3)cc2c1 (racemic) [Compound 411, rac-4-(4-((3aR,6aR)-5-hydroxyoctahydrocyclopenta[c]pyrrol-5-yl)phenyl)-7-(4-(trifluoromethyl)phenyl)-2-naphthoic acid]
